One assay has as its system C. krusei NCPF3876. Kind of assay: microbe, parasite or virus in culture. Type of assay: cell-based, Candida krusei. The note with it: Pichia kudriavzevii, NCPF3876; Table 4, common panel; 24 hours, ≥50% inhibition; read-out: MIC C. krusei NCPF3876. As for the experimental part: (§1) The minimum inhibitory concentration of test compounds were determined in a panel of Candida species (see Table 4 below), using the a serial dilution method in 96-well plates using the following protocol.
(§2) Starter cultures of fungal strains to be tested were grown in 3 mL of RPMI 2% glucose media incubated at 37° C. with shaking at 200 rpm overnight. The culture media used was 900 mL H2O; 10.4 g RPMI 1640 (with L-glutamine and a pH indicator but without bicarbonate); 34.5 g MOPS and 18 g glucose. The pH of the media was adjusted to 7.0 with 1 M sodium hydroxide.
(§3) Solutions of the compound to be tested were prepared by dissolving the compound in DMSO and subsequently into media to the desired concentrations. […] The last two rows of each plate were control rows containing the culture media alone and the media plus fungi.
(§4) The fungi starter cultures were diluted 1:10 in water in cuvettes. This was then further diluted to an optical density (OD600) of 0.01 in media. 100 μL of the fungi was added to each well giving a starting concentration of fungus of 0.5-5×10^5/mL. One species of fungus was used on each plate. The plates were then held at 37° C. for 24 hours.
(§5) A plate reader was used to measure growth in each well at OD530 nm and the MIC was determined for each test compound. The MIC is defined as the lowest concentration giving rise to inhibition of ≥50% of that of the drug-free control well containing the fungus and media.

Another assay deals with C. auris 8977. Kind of assay: Candida panel MIC, serial dilution in 96-well plates. Type of assay: cell-based, Candida auris. The following applies: Candidozyma auris, 8977; Table 4, extended panel; 24 hours, ≥50% inhibition; read-out: MIC C. auris 8977. Here is the method: as §1, §2, §3, §4, §5
(§6) The Candida auris strains shown in Table 7 were either taken from the National Collection of Pathogenic Fungi (NCPF) or collected as part of ongoing surveillance studies. The strains were characterised as follows.

A further assay has as its system C. auris 8984. The assay is described as above. Type of assay: cell-based, Candida auris. The following applies: Candidozyma auris, 8984; Table 4, extended panel; 24 hours, ≥50% inhibition; read-out: MIC C. auris 8984. Here is the method: as §1, §2, §3, §4, §5, §6
For a further assay, the system named is C. auris 8971. The assay is described as above. In kind it is cell-based, Candida auris. The following applies: Candidozyma auris, 8971; Table 4, extended panel; 24 hours, ≥50% inhibition; read-out: MIC C. auris 8971. Here is the method: as §1, §2, §3, §4, §5, §6
In the next assay the test system is C. albicans NCPF3281. The assay is described as above. The note with it: Candida albicans, read-out: MIC C. albicans NCPF3281. Type of assay: cell-based, Candida albicans. Here is the method:
as §1, §2
(§7) Solutions of the compound to be tested were prepared by dissolving the compound in DMSO and subsequently into media to the desired concentrations. 200 μL of compound solution was then added to the wells of the 96-well plate using a serial dilution method row-by row of the plate to give a compound concentration gradient across the plate of from 128 μg/mL to 0.25 μg/mL. The last two rows of each plate were control rows containing the culture media alone and the media plus fungi.
as §4, §5

Another assay deals with Candida auris TDG2512. Described as above. In kind it is cell-based. The note with it: Candidozyma auris, read-out: MIC Candida auris TDG2512. Here is the method:
as §1, §2, §7, §4, §5

Another assay concerns Candida auris TDG1102. The assay is described as above. Type of assay: cell-based. The note with it: Candidozyma auris, TDG1102; Table 4, extended panel; 24 hours, ≥50% inhibition; read-out: MIC Candida auris TDG1102. As for the experimental part:
as §1, §2, §7, §4, §5

Another assay has as its system C. tropicalis NCPF8760. The description is as above. Type of assay: cell-based. The following applies: NCPF8760, Table 4, common panel, 24 hours, ≥50% inhibition, read-out: MIC C. tropicalis NCPF8760. As for the experimental part:
as §1, §2, §7, §4, §5

A further assay relates to C. auris TDG1912. The description is as above. In kind it is cell-based. The following applies: Candidozyma auris, read-out: MIC C. auris TDG1912. As for the experimental part:
as §1, §2, §7, §4, §5

The subject of the next assay is Candida auris TDG2506. Kind of assay: microbe, parasite or virus in culture. Type of assay: cell-based. The following applies: Candidozyma auris, TDG2506; Table 4, extended panel; 24 hours, ≥50% inhibition; read-out: MIC Candida auris TDG2506. As for the experimental part: as §1, §2, §3, §4, §5, §6
For a further assay, the system named is Candida auris TDG2211. Kind of assay: microbe, parasite or virus in culture. In kind it is cell-based. The following applies: Candidozyma auris, TDG2211; Table 4, extended panel; 24 hours, ≥50% inhibition; read-out: MIC Candida auris TDG2211. As for the experimental part:
as §1, §2, §3, §4, §5, §6

For a further assay, the system named is C. parapsilosis NCPF3209. Kind of assay: microbe, parasite or virus in culture. Type of assay: cell-based, Candida parapsilosis. The note with it: Lodderomyces parapsilosis, NCPF3209; Table 4, common panel; 24 hours, ≥50% inhibition; read-out: MIC C. parapsilosis NCPF3209. As for the experimental part:
as §1, §2, §3, §4, §5

For the next assay, the system named is C. glabrata NCPF8018. Kind of assay: Candida panel MIC, serial dilution in 96-well plates. In kind it is cell-based, Candida glabrata. The note with it: Nakaseomyces glabratus, NCPF8018; Table 4, common panel; 24 hours, ≥50% inhibition; read-out: MIC C. glabrata NCPF8018. Here is the method: as §1, §2, §3, §4, §5
The mark [1] stands for this setting: NCPF3281, Table 4, common panel, 24 hours, ≥50% inhibition.
The mark [2] stands for this setting: TDG2512, Table 4, extended panel, 24 hours, ≥50% inhibition.
The mark [3] stands for this setting: TDG1912, Table 4, 24 hours, ≥50% inhibition.

In brackets after ≈: the same amount, converted by molar mass. Like-named read-outs stand apart in the source and are kept apart here.

With `OC(CN1CCCN(c2ccc(OCCN3CCOCC3)cc2)CC1)(Cn1cncn1)c1ccc(F)cc1F` (stereo not drawn) [Example 89], the MIC was 0.5 mg/L (≈ 0.921 µM) in the assay on C. krusei NCPF3876; 0.25 mg/L (≈ 0.461 µM) with C. auris 8977; 4 to 8 mg/L (≈ 7.37 to 14.7 µM) in the assay on C. auris 8984; 0.25 mg/L (≈ 0.461 µM) in the assay with C. auris 8971; 0.156 mg/L (≈ 0.287 µM) in the assay with C. albicans NCPF3281 (NCPF3281, 24 h); 0.25 mg/L (≈ 0.461 µM) in the assay on Candida auris TDG2512 (TDG2512, 24 h). Besides, the MIC with Candida auris TDG1102 was 1 mg/L (≈ 1.84 µM); with C. tropicalis NCPF8760, 2 mg/L (≈ 3.69 µM); in the assay on C. auris TDG1912 (TDG1912, 24 h), 1 mg/L (≈ 1.84 µM); in the assay on Candida auris TDG2506, 4 to 8 mg/L (≈ 7.37 to 14.7 µM); in the assay with Candida auris TDG2211, 0.5 mg/L (≈ 0.921 µM); in the assay on C. parapsilosis NCPF3209 it was 0.0313 mg/L (≈ 0.0577 µM). In addition, the MIC with C. glabrata NCPF8018 was determined as 2 mg/L (≈ 3.69 µM).
In the case of `OC(CN1CCCC(Nc2ccc(OCCN3CCOCC3)cc2)CC1)(Cn1cncn1)c1ccc(F)cc1F` (stereo not drawn) [Example 91], the MIC in the assay on C. krusei NCPF3876 came to 2 mg/L (≈ 3.59 µM); in the assay on C. auris 8977 it was 0.5 mg/L (≈ 0.898 µM); with C. auris 8984, 4 mg/L (≈ 7.19 µM); in the assay with C. auris 8971 it was 0.5 mg/L (≈ 0.898 µM); in the assay with C. albicans NCPF3281 (setting [1]), 0.0156 mg/L (≈ 0.0281 µM); with Candida auris TDG2512 (setting [2]), 0.125 mg/L (≈ 0.225 µM). The MIC came to 2 mg/L (≈ 3.59 µM) with Candida auris TDG1102; 8 mg/L (≈ 14.4 µM) with C. tropicalis NCPF8760; 4 mg/L (≈ 7.19 µM) in the assay on C. auris TDG1912 (setting [3]); 4 mg/L (≈ 7.19 µM) in the assay on Candida auris TDG2506; 0.25 mg/L (≈ 0.449 µM) in the assay on Candida auris TDG2211; 0.0625 mg/L (≈ 0.112 µM) with C. parapsilosis NCPF3209. The MIC in the assay on C. glabrata NCPF8018 stood at 16 mg/L (≈ 28.7 µM).
As to `OC(CN1CCC(N2CCC(Nc3ccc(OCCN4CCOCC4)cc3)CC2)CC1)(Cn1cncn1)c1ccc(F)cc1F` (stereo not drawn) [Example 92], the MIC was more than 32 mg/L with C. krusei NCPF3876; 8 mg/L (≈ 12.8 µM) in the assay on C. auris 8977; 32 mg/L (≈ 51.1 µM) with C. auris 8984; 16 mg/L (≈ 25.6 µM) in the assay on C. auris 8971; 2 mg/L (≈ 3.2 µM) in the assay with C. albicans NCPF3281 (setting [1]); 4 mg/L (≈ 6.39 µM) with Candida auris TDG2512 (setting [2]). Further, the MIC is 32 mg/L (≈ 51.1 µM) in the assay with Candida auris TDG1102; more than 32 mg/L in the assay with C. tropicalis NCPF8760; 32 mg/L (≈ 51.1 µM) with C. auris TDG1912 (setting [3]); 32 mg/L (≈ 51.1 µM) with Candida auris TDG2506; 8 to 32 mg/L (≈ 12.8 to 51.1 µM) in the assay with Candida auris TDG2211; 2 to 8 mg/L (≈ 3.2 to 12.8 µM) in the assay with C. parapsilosis NCPF3209. Besides, the MIC in the assay with C. glabrata NCPF8018 was more than 32 mg/L.
In the case of `COCCOc1ccc(NC2CCN(CC(O)(Cn3cncn3)c3ccc(F)cc3F)CC2)cc1` (stereo not drawn) [Example 96], the MIC in the assay with C. krusei NCPF3876 was 0.5 mg/L (≈ 1.03 µM); in the assay with C. auris 8977, 0.06 mg/L (≈ 0.123 µM); with C. auris 8984 it was 0.25 mg/L (≈ 0.513 µM); in the assay on C. auris 8971 it was 0.06 mg/L (≈ 0.123 µM); in the assay on C. albicans NCPF3281 (setting [1]), 0.0078 to 0.0156 mg/L (≈ 0.016 to 0.032 µM); with Candida auris TDG2512 (setting [2]), 4 mg/L (≈ 8.2 µM). Further, the MIC with Candida auris TDG1102 is 0.06 mg/L (≈ 0.123 µM); in the assay on C. tropicalis NCPF8760 it was 1 mg/L (≈ 2.05 µM); in the assay on C. auris TDG1912 (setting [3]) it was 0.125 mg/L (≈ 0.256 µM); with Candida auris TDG2506 it was 0.06 mg/L (≈ 0.123 µM); in the assay on Candida auris TDG2211, 0.0156 to 0.06 mg/L (≈ 0.032 to 0.123 µM); in the assay with C. parapsilosis NCPF3209 it was 0.0156 mg/L (≈ 0.032 µM). Moreover, in the assay with C. glabrata NCPF8018, the MIC was determined as 4 mg/L (≈ 8.2 µM).
On to `CN1CCC(Oc2ccc(NC3CCN(CC(O)(Cn4cncn4)c4ccc(F)cc4F)CC3)cc2)CC1` (stereo not drawn) [Example 98], for which the MIC in the assay with C. krusei NCPF3876 is 8 mg/L (≈ 15.2 µM); in the assay with C. auris 8977, 8 mg/L (≈ 15.2 µM); in the assay with C. auris 8984, more than 8 mg/L; in the assay with C. auris 8971, 8 mg/L (≈ 15.2 µM); with C. albicans NCPF3281 (setting [1]), 0.125 mg/L (≈ 0.237 µM); with Candida auris TDG2512 (setting [2]), 2 mg/L (≈ 3.8 µM). The MIC with Candida auris TDG1102 is more than 8 mg/L; with C. tropicalis NCPF8760, more than 8 mg/L; in the assay with C. auris TDG1912 (setting [3]), more than 8 mg/L; in the assay with Candida auris TDG2506, more than 8 mg/L; in the assay on Candida auris TDG2211 it was more than 8 mg/L; in the assay with C. parapsilosis NCPF3209 it was 0.125 mg/L (≈ 0.237 µM). Besides, in the assay with C. glabrata NCPF8018, the MIC amounted to 8 mg/L (≈ 15.2 µM).
As for `Cc1ccc(-c2ccc(NC3C[C@@H]4CN(CC(O)(Cn5cncn5)c5ccc(F)cc5F)C[C@@H]4C3)cc2)cc1F` (stereo partly drawn) [Example 99], the MIC in the assay on C. krusei NCPF3876 was 1 mg/L (≈ 1.83 µM); with C. auris 8977, 1 to 4 mg/L (≈ 1.83 to 7.3 µM); in the assay with C. auris 8984, 32 mg/L (≈ 58.4 µM); in the assay on C. auris 8971, 1 to 4 mg/L (≈ 1.83 to 7.3 µM); in the assay on C. albicans NCPF3281 (setting [1]), not above 0.03 mg/L; in the assay on Candida auris TDG2512 (setting [2]) it was 0.5 mg/L (≈ 0.913 µM). Also, the MIC with Candida auris TDG1102 was 16 to 32 mg/L (≈ 29.2 to 58.4 µM); in the assay on C. tropicalis NCPF8760, more than 32 mg/L; in the assay on C. auris TDG1912 (setting [3]), 16 mg/L (≈ 29.2 µM); in the assay on Candida auris TDG2506 it was 32 mg/L (≈ 58.4 µM); with Candida auris TDG2211, 0.125 to 16 mg/L (≈ 0.228 to 29.2 µM); with C. parapsilosis NCPF3209, not above 0.03 mg/L. In the assay on C. glabrata NCPF8018, the MIC came to 8 mg/L (≈ 14.6 µM).

Source of the values: patent US20240246920A1, “TRIAZOLE DERIVATIVES WITH ANTIFUNGAL ACTIVITY” (King's College London, priority 2020, published 2024).
